In brackets after ≈: the same amount, converted by molar mass. Activity calls are given as the source filed them.

The subject of one experiment is Escherichia coli. Kind of experiment: Antibacterial activity against Escherichia coli incubated overnight by disk diffusion method. It is filed as functional, organism-based. For orientation: In agar diffusion tests the substance spreads into inoculated agar from a disc or well.
Another experiment deals with Enterococcus faecalis. Kind of experiment: Antibacterial activity against Enterococcus faecalis incubated overnight by disk diffusion method. The format is functional, organism-based.
The subject of the next experiment is Staphylococcus aureus. Briefly: Antibacterial activity against Staphylococcus aureus incubated overnight by disk diffusion method. The format is functional, organism-based.
The test system of the next experiment is Enterococcus faecium. Kind of experiment: Antibacterial activity against Enterococcus faecium incubated overnight by disk diffusion method. The format is functional, organism-based.
Experiment [1] deals with Streptococcus pneumoniae. Kind of experiment: Antibacterial activity against Streptococcus pneumoniae R6 incubated overnight by disk diffusion method. It is filed as functional.
The target of another experiment is T1, Glutamate racemase (Streptococcus pneumoniae serotype 2 (strain D39 / NCTC 7466), UniProt Q04IS7).
T1 sequence (Q04IS7 whole entry): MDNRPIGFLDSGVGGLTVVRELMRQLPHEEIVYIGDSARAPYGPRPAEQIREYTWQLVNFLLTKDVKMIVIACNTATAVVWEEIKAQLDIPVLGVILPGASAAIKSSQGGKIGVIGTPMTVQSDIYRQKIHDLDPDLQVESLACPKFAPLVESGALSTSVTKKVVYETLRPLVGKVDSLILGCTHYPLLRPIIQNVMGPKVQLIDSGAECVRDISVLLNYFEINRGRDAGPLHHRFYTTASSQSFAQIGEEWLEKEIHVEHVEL
Briefly: Inhibition of Streptococcus pneumoniae glutamate racemase.

The test system of experiment [2] is Streptococcus pneumoniae. Briefly: Antibacterial activity against Streptococcus pneumoniae. The format is functional.
The subject of experiment [3] is Streptococcus pneumoniae. Kind of experiment: Ratio of MIC for Streptococcus pneumoniae to IC50 for Streptococcus pneumoniae glutamate racemase.
The subject of experiment [4] is Streptococcus pneumoniae. Kind of experiment: Antibacterial activity against Streptococcus pneumoniae R6 at 0.5 to 3 mg/ml incubated overnight by disk diffusion method. The format is functional, organism-based.

`Cc1ccc(C(=O)CC(NCCc2c[nH]c3ccccc23)C(=O)O)cc1` (stereo not given): the result with Escherichia coli, in the experiment with Enterococcus faecalis, with Staphylococcus aureus and with Enterococcus faecium was inactive. Also, the minimal inhibitory concentration (MIC) (as a rule, the smallest concentration in the dilution series that meets the test's criterion for growth inhibition) against Streptococcus pneumoniae [1] came to 1000 µg/mL (≈ 2850 µM).
Take `N[C@H](C[C@H](C(=O)O)c1ccc(NC(=O)Nc2ccccc2)cc1)C(=O)O`: at Glutamate racemase, the midpoint of inhibition, the IC50, lay at 1370 nM. Besides, in the experiment on Streptococcus pneumoniae [2], the MIC came to 16 µg/mL (≈ 44.8 µM). Further, the Ratio with Streptococcus pneumoniae [3] worked out at 100.
`O=C(CC(NCCc1c[nH]c2ccccc12)C(=O)O)c1ccc(Br)cc1` (stereo not given): the outcome with Escherichia coli, in the experiment on Enterococcus faecalis, in the experiment with Staphylococcus aureus and in the experiment with Enterococcus faecium was inactive. This compound also returned an MIC against Streptococcus pneumoniae [1] of 1000 µg/mL (≈ 2410 µM).
On to `O=C(CC(NCCc1c[nH]c2ccccc12)C(=O)O)c1ccc(F)cc1` (stereo not given), for which the result in the experiment with Escherichia coli, in the experiment on Enterococcus faecalis, in the experiment with Staphylococcus aureus and in the experiment on Enterococcus faecium was inactive. In the experiment with Streptococcus pneumoniae [1], the MIC came to 1000 µg/mL (≈ 2820 µM).
For `N[C@H](C[C@H](C(=O)O)c1cccc(-c2ccco2)c1)C(=O)O`, the IC50 (usually the midpoint of a concentration-inhibition curve) against Glutamate racemase was 1730 nM. For the same compound, the MIC with Streptococcus pneumoniae [2] was 0.24 µg/mL (≈ 0.83 µM).
In the case of `O=C(CC(NCCc1c[nH]c2ccccc12)C(=O)O)c1ccc(Cl)cc1` (stereo not given), the outcome with Escherichia coli, in the experiment with Enterococcus faecalis, in the experiment with Staphylococcus aureus, in the experiment on Enterococcus faecium and with Streptococcus pneumoniae [4] was inactive.
